Results: US7868204B2, “Inhibitors of histone deacetylase” (MethylGene Inc., priority 2001, dated 2011)
Like-named read-outs stand apart in the source and are kept apart here.

Experiments:
HCT116 cells = assay: MTT assay; type: cell-based; conditions: Homo sapiens, HCT116 cells, 72 hours
In short: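 Cells plated one day before dosing, then exposed to compound 72 h at 37 °C, 5% CO2. MTT at 0.5 mg/ml final for 4 h, solubilized in DMF/SDS buffer pH 4.7; OD converted to cell number from a standard growth curve.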

[1] = system: acetylated histone H-4 in T24 human bladder cancer cells; assay: Histone H4 acetylation in whole cells by immunoblots; type: cell-based; conditions: 16 h
Description: T24 human bladder cancer cells growing in culture were incubated with HDAC inhibitors for 16 h. […] of total histone protein was loaded onto SDS/PAGE and transferred to nitrocellulose membranes. Membranes were probed with polyclonal antibodies specific for acetylated histone H-4 (Upstate Biotech Inc.), followed by horse radish peroxidase conjugated secondary antibodies (Sigma). Enhanced Chemiluminescence (ECL) (Amersham) detection was performed using Kodak films (Eastman Kodak). Acetylated H-4 signal was quantified by densitometry.

[2] = target: T1, cloned recombinant human HDAC-1 (Homo sapiens, UniProt Q13547); assay: Human HDAC-1 enzyme inhibition, Assay 1 ([3H]-acetylated histone substrate, scintillation counting); type: biochemical
T1 construct: made in house; host or cells: Baculovirus insect cell expression system
In short: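 Recombinant human HDAC-1 from baculovirus-infected insect cells, preincubated with compound 30 min at 4° C. before reaction. Released [3H]-acetic acid extracted with ethyl acetate and counted by scintillation. IC50 taken from dose-response curves as concentration giving half-maximal inhibition.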

[3] = T-24, Table 5c, read-out: H4Ac (T24) EC50
[4] = T-24, Table 5d, read-out: H4Ac(T24) EC50
[5] = T-24, Table 5F, read-out: H4 Ac (T24) EC50
[6] = T-24, Table 5E, read-out: H4 Ac (T24) EC50
[7] = Table 5d, read-out: HDAC-1 IC50
[8] = Table 5b, read-out: Human HDAC-1 IC50
[9] = Table 5F, read-out: Human HDAC-1 IC50

T1 sequence (Q13547 whole entry): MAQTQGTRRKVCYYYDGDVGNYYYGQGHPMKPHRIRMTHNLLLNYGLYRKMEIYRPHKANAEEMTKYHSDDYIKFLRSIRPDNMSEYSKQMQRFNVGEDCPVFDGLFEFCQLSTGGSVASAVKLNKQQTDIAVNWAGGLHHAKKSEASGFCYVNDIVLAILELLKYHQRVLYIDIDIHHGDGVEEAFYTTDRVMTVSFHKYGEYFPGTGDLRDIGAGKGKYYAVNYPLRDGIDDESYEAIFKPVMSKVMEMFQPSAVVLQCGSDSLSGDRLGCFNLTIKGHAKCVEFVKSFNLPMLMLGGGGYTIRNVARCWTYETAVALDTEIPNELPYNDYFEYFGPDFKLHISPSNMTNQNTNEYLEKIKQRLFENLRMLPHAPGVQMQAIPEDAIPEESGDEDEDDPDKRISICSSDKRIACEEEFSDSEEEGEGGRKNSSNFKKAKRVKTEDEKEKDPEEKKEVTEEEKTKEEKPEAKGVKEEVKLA

Nc1ccccc1NC(=O)/C=C/c1ccc(NCCCc2ccccc2)nc1 [Cpd 94, N-(2-aminophenyl)-3-[6-(3-phenyl-propylamino)-pyridin-3-yl]-acrylamide]
IC50 (HCT116 cells; HCT-116, 72 h, Table 5c): 2 µM | EC50 [1, 3]: 5 µM

COc1ccc(NCc2ccc(/C=C/C(=O)Nc3ccccc3N)cc2)cc1OC [Cpd 542, N-(2-Amino-phenyl)-3-{4-[(3,4-dimethoxy-phenylamino)-methyl]-phenyl}-acrylamide]
IC50 (HCT116 cells; HCT-116, Table 5d): 5 µM | EC50 [1, 4]: 4 µM

COc1cc(N(C)Cc2ccc(/C=C/C(=O)Nc3ccccc3N)cc2)cc(OC)c1OC [Cpd 108]
IC50 (HCT116 cells; HCT-116, 72 h, Table 5c): 5 µM | EC50 [1, 3]: 5 µM

COc1ccc(NCc2ccc(C(=O)Nc3ccccc3O)cc2)cc1OC [Cpd 572, N-(2-hydroxy-phenyl)-4-[(3,4-Dimethoxy-phenylamino)-methyl]-benzamide]
IC50 (HCT116 cells; HCT-116, 72 h, Table 5F): 5 µM | EC50 [1, 5]: 5 µM

Nc1ccccc1NC(=O)/C=C/c1ccc(NCc2ccncc2)nc1 [Cpd 91]
IC50 (HCT116 cells; HCT-116, 72 h, Table 5c): 7 µM | EC50 [1, 3]: 5 µM

COc1cc(CNc2ccc(/C=C/C(=O)Nc3ccccc3N)cn2)cc(OC)c1OC [Cpd 116, N-(2-aminophenyl)-3-[6-(3,4,5-trimethoxy-benzylamino)-pyridin-3-yl]-acrylamide]
IC50 (HCT116 cells; HCT-116, 72 h, Table 5c): 2 µM | EC50 [1, 3]: 5 µM

Nc1ccccc1NC(=O)/C=C/c1ccc(NCc2ccccc2)nc1 [Cpd 93, N-(2-aminophenyl)-3-(6-benzylamino-pyridin-3-yl)-acrylamide]
IC50 (HCT116 cells; HCT-116, 72 h, Table 5c): 1 µM | EC50 [1, 3]: 5 µM

COc1ccc(-c2ccnc(NCc3ccc(C(=O)Nc4ccccc4N)cc3)n2)cc1OC [Cpd 440, N-(2-Amino-phenyl)-4-{[4-(3,4-dimethoxy-phenyl)-pyrimidin-2-ylamino]-methyl}-benzamide]
IC50 (HCT116 cells; HCT-116, 72 h, Table 5F): 0.1 µM | EC50 [1, 5]: 2 µM

COc1ccc(NCc2ccc(C(=O)Nc3ccccc3N)cc2)cc1OC [Cpd 424b]
IC50 (HCT116 cells; HCT-116, 72 h, Table 5F): 0.4 µM | EC50 [1, 5]: 1 µM

COc1cc(CNc2ccc(C(=O)Nc3ccccc3N)cc2)cc(OC)c1OC [Cpd 412, N-(2-Amino-phenyl)-4-(3,4,5trimethoxybenzylamino)-benzamide]
IC50 (HCT116 cells; HCT-116, 72 h, Table 5F): 2 µM | EC50 [1, 5]: 3 µM

Nc1ccccc1NC(=O)/C=C/c1ccc(NCc2ccc(OC(F)(F)F)cc2)nc1 [Cpd 99, N-(2-aminophenyl)-3-[6-(4-trifluoromethoxy-benzylamino)-pyridin-3-yl]-acrylamide]
IC50 (HCT116 cells; HCT-116, 72 h, Table 5c): 5 µM | EC50 [1, 3]: 10 µM

COc1cc(NCc2ccc(C(=O)Nc3ccccc3N)cc2)cc(OC)c1OC [Cpd 164]
IC50 (HCT116 cells; HCT-116, 72 h, Table 5E): 2 µM | EC50 [1, 6]: 3 µM

COc1ccc(NCc2ccc(C(=O)Nc3ccccc3N)cc2)cc1 [Cpd 427, N-(2-Amino-phenyl)-4-[(4-methoxy-phenylamino)-methyl]-benzamide]
IC50 (HCT116 cells; HCT-116, 72 h, Table 5F): 2 µM | EC50 [1, 5]: 1 µM

COc1ccc(CNc2ccc(C(=O)Nc3ccccc3N)cc2)cc1OC [Cpd 434, N-(2-Amino-phenyl)-4-(3,4-dimethoxy-benzylamino)-benzamide]
IC50 (HCT116 cells; HCT-116, 72 h, Table 5F): 0.6 µM | EC50 [1, 5]: 2 µM

Nc1ccccc1NC(=O)/C=C/c1ccc(NCc2ccc(F)cc2)nc1 [Cpd 92, N-(2-aminophenyl)-3-[6-(4-fluoro-benzylamino)-pyridin-3-yl]-acrylamide]
IC50 (HCT116 cells; HCT-116, 72 h, Table 5c): 2 µM | EC50 [1, 3]: 3 µM

COc1cc(NCc2ccc(/C=C/C(=O)Nc3ccccc3N)cn2)cc(OC)c1OC [Cpd 512, N-(2-Amino-phenyl)-3-{6-[(3,4,5-trimethoxy-phenylamino)-methyl]-pyridin-3-yl}-acrylamide]
IC50 (HCT116 cells; HCT-116, Table 5d): 3 µM | EC50 [1, 4]: 5 µM

COc1cc(CNc2ccc(C(=O)Nc3ccccc3N)cn2)cc(OC)c1OC [Cpd 176]
IC50 (HCT116 cells; HCT-116, 72 h, Table 5E): 1 µM | EC50 [1, 6]: 3 µM

Nc1ccccc1NC(=O)/C=C/c1ccc(CNc2ccc([N+](=O)[O-])c(C(F)(F)F)c2)cc1 [Cpd 534, N-(2-Amino-phenyl)-3-{4[(4-nitro-3-trifluoromethyl-phenylamino)-methyl]-phenyl}-acrylamide]
IC50 (HCT116 cells; HCT-116, Table 5d): 5 µM | IC50 [2, 7]: 3 µM

Nc1ccccc1NC(=O)/C=C/c1ccc(Br)cc1 [Cpd 516, N-(2-Amino-phenyl)-3-(4-bromo-phenyl)-acrylamide]
IC50 (HCT116 cells; HCT-116, Table 5d): 15 µM | IC50 [2, 7]: 15 µM

Nc1ccccc1NC(=O)/C=C/c1ccc(CNc2cccc(S(N)(=O)=O)c2)cc1 [Cpd 538, N-(2-Amino-phenyl)-3-{4-[(3-sulfamoyl-phenylamino)-methyl]-phenyl}-acrylamide]
IC50 (HCT116 cells; HCT-116, Table 5d): 12 µM | IC50 [2, 7]: 4 µM

Nc1ccccc1NC(=O)c1ccc(CNc2nc(NCCc3cccnc3)nc(NC3CC3)n2)cc1 [Cpd 481]
IC50 (HCT116 cells; HCT-116, 72 h, Table 5b): 0.7 µM | IC50 [2, 8]: 6 µM

CN(C)c1ccc(CNc2ccc(/C=C/C(=O)Nc3ccccc3N)cn2)cc1 [Cpd 96, N-(2-aminophenyl)-3-[6-(4-dimethylamino-benzylamino)-pyridin-3-yl]-acrylamide]
IC50 (HCT116 cells; HCT-116, 72 h, Table 5c): 3 µM | EC50 [1, 3]: 25 µM

COc1ccc(CNc2ccc(/C=C(\C)C(=O)Nc3ccccc3N)cn2)cc1 [Cpd 61b, N-(2-aminophenyl)-3-[6-(4-methoxy-benzylamino)-pyridin-3-yl]-2-methyl-acrylamide]
IC50 (HCT116 cells; HCT-116, 72 h, Table 5c): 12 µM | IC50 ([2]; Table 5c, read-out: Human HDAC-1 IC50): 7 µM

Nc1ccccc1NC(=O)c1ccc(CNc2nc(NC3CC3)nc(OCCc3ccccc3)n2)cc1 [Cpd 482]
IC50 (HCT116 cells; HCT-116, 72 h, Table 5b): 0.7 µM | IC50 [2, 8]: 0.1 µM

COc1ccc(C2=NC(c3ccc(C(=O)Nc4ccccc4N)cc3)CO2)cc1OC (centres unmarked) [compound 301, N-(2-Amino-phenyl)-4-[2-(3,4-dimethoxy-phenyl)-4,5-dihydro-oxazol-4-yl]-benzamide]
IC50 (HCT116 cells; HCT-116, 72 h, Table 5F): 3 µM | IC50 [2, 9]: 3 µM

Nc1ccccc1NC(=O)/C=C/c1ccc(CNc2ccc(I)cc2)cc1 [Cpd 547, N-(2-Amino-phenyl)-3-{4-[(4-iodo-phenylamino)-methyl]-phenyl}-acrylamide]
IC50 (HCT116 cells; HCT-116, Table 5d): 8 µM | IC50 [2, 7]: 4 µM

Nc1ccccc1NC(=O)/C=C/c1cnc(NCc2ccc([N+](=O)[O-])cc2)nc1 [Cpd 113, N-(2-amino-phenyl)-3-[2-(4-nitro-benzylamino)-pyrimidin-5-yl]-acrylamide]
IC50 (HCT116 cells; HCT-116, 72 h, Table 5c): 0.3 µM | EC50 [1, 3]: 5 µM

COc1cccc(-c2ccc(C(=O)Nc3ccccc3N)cn2)c1 [Cpd 141, N-(2-Amino-phenyl)-6-(3-methoxyphenyl)-nicotinamide]
IC50 (HCT116 cells; HCT-116, 72 h, Table 5E): 10 µM | IC50 ([2]; Table 5E, read-out: Human HDAC-1 IC50): 7 µM

Cc1nc(Cc2ccc(C(=O)Nc3ccccc3N)cc2)no1 [compound 284, N-(2-Amino-phenyl)-4-(5-methyl-[1,2,4]oxadiazol-3-ylmethyl)-benzamide]
IC50 (HCT116 cells; HCT-116, 72 h, Table 5F): 5 µM | IC50 [2, 9]: 3 µM

COc1cc(SCc2ccc(/C=C/C(=O)Nc3ccccc3N)cc2)cc(OC)c1OC [Cpd 500, N-(2-Amino-phenyl)-3-[4-(3,4,5-trimethoxy-phenylsulfanylmethyl)-phenyl]-acrylamide]
IC50 (HCT116 cells; HCT-116, Table 5d): 37 µM | IC50 [2, 7]: 23 µM

CNc1nc2cc(NCc3ccc(C(=O)Nc4ccccc4N)cc3)ccc2s1 [Cpd 456, N-(2-Amino-phenyl)-4-[(2-methylamino-benzothiazol-5-ylamino)-methyl]-benzamide]
IC50 (HCT116 cells; HCT-116, 72 h, Table 5F): 0.4 µM | IC50 [2, 9]: 3 µM

Nc1ccccc1NC(=O)/C=C/c1ccc(CNc2ccc(Br)cc2)cc1 [Cpd 545, N-(2-Amino-phenyl)-3-{4[(4-bromo-phenylamino)-methyl]-phenyl}-acrylamide]
IC50 (HCT116 cells; HCT-116, Table 5d): 12 µM | IC50 [2, 7]: 2 µM

Nc1ccccc1NC(=O)c1ccc(CNc2nc(NCCc3cccc(Cl)c3)nc(NC3CC3)n2)cc1 [Cpd 477]
IC50 (HCT116 cells; HCT-116, 72 h, Table 5b): 0.7 µM | IC50 [2, 8]: 1 µM

Cc1ccc(NCc2ccc(C(=O)Nc3ccccc3N)cc2)c(C)c1 [Cpd 409, N-(2-Amino-phenyl)-4-[(2,4-dimethyl-phenylamino)-methyl]-benzamide]
IC50 (HCT116 cells; HCT-116, 72 h, Table 5F): 1 µM | IC50 [2, 9]: 3 µM

Nc1ccccc1NC(=O)/C=C/c1ccc(C(=O)Nc2ccccc2N)cc1 [Cpd 520, N-(2-Amino-phenyl)-4-[2-(2-amino-phenylcarbamoyl)-vinyl]-benzamide]
IC50 (HCT116 cells; HCT-116, Table 5d): 3 µM | IC50 [2, 7]: 5 µM

COc1cc(C2CCC(c3ccc(C(=O)Nc4ccccc4N)cc3)O2)cc(OC)c1OC (centres unmarked) [compound 290, N-(2-Amino-phenyl)-4-[5-(3,4,5-trimethoxy-phenyl)-tetrahydro-furan-2-yl]-benzamide]
IC50 (HCT116 cells; HCT-116, 72 h, Table 5F): 3 µM | IC50 [2, 9]: 11 µM

Cc1cc(C)n(-c2ccc(C(=O)Nc3ccccc3N)cc2)n1 [compound 286, N-(2-Amino-phenyl)-4-(3,5-dimethyl-pyrazol-1-yl)-benzamide]
IC50 (HCT116 cells; HCT-116, 72 h, Table 5F): 2 µM | IC50 [2, 9]: 5 µM

CCCCNc1nc(NCCc2ccccc2)nc(NCc2ccc(C(=O)Nc3ccccc3N)cc2)n1 [Cpd 473]
IC50 (HCT116 cells; HCT-116, 72 h, Table 5b): 3 µM | IC50 [2, 8]: 4 µM

COc1ccc(CNc2ccc(C3CC3C(=O)Nc3ccccc3N)cn2)cc1 (centres unmarked) [Cpd 576]
IC50 (HCT116 cells; HCT-116, 72 h, Table 5F): 6 µM | IC50 [2, 9]: 5 µM

Nc1ccccc1NC(=O)/C=C/c1ccc(NCc2cccc(OC(F)(F)F)c2)cc1 [Cpd 496, N-(2-Amino-phenyl)-3-[4-(3-trifluoromethoxy-benzylamino)-phenyl]-acrylamide]
IC50 (HCT116 cells; HCT-116, Table 5d): 13 µM | IC50 [2, 7]: 8 µM
